# Test results as given in patent US7186545B2, “Probiotic strains from Lactobacillus salivarius and antimicrobial agents obtained therefrom” (Enterprise Ireland, priority 1997, dated 2007).
# System: Lactobacillus isolates
# Assay: Antibiotic disc susceptibility assay
# Settings: sensitive if zone of 1 mm or greater
# Description: Antibiotic sensitivity profiles of the isolates were determined using the ‘disc susceptibility’ assay. Cultures were grown up in the appropriate broth medium for 24–48 h, spread-plated (100 μl) onto agar media and discs containing known concentrations of the antibiotics were placed onto the agar. Strains were examined for antibiotic sensitivity after 1–2 days incubation at 37° under anaerobic conditions. Strains were considered sensitive if zones of inhibition of 1 mm or greater were seen.
row,Compound,Sensitivity of the lactobacilli to the antibiotic
1,NCC[C@H](O)C(=O)N[C@@H]1C[C@H](N)[C@@H](O[C@H]2O[C@H](CN)[C@@H](O)[C@H](O)[C@H]2O)[C@H](O)[C@H]1O[C@H]1O[C@H](CO)[C@@H](O)[C@H](N)[C@H]1O [amikacin],resistant
2,CC1(C)S[C@@H]2[C@H](NC(=O)[C@H](N)c3ccc(O)cc3)C(=O)N2[C@H]1C(=O)O [amoxycillin],sensitive
3,gentamicin,resistant
4,teicoplanin,Variable sensitivity
5,CC1(C)S[C@@H]2[C@H](NC(=O)[C@H](N)c3ccccc3)C(=O)N2[C@H]1C(=O)O [ampicillin],sensitive
6,COc1cc(Cc2cnc(N)nc2N)cc(OC)c1OC [trimethoprim],resistant
7,CC1=C(C(=O)O)N2C(=O)[C@@H](NC(=O)[C@H](N)C3=CCC=CC3)[C@H]2SC1 [cephradine],sensitive
8,CO/N=C(\C(=O)N[C@@H]1C(=O)N2C(C(=O)O)=C(CSc3nc(=O)c(=O)[nH]n3C)CS[C@H]12)c1csc(N)n1 [ceftriaxone],sensitive
9,CN[C@H](CC(C)C)C(=O)N[C@H]1C(=O)N[C@@H](CC(N)=O)C(=O)N[C@H]2C(=O)N[C@H]3C(=O)N[C@H](C(=O)N[C@H](C(=O)O)c4cc(O)cc(O)c4-c4cc3ccc4O)[C@H](O)c3ccc(c(Cl)c3)Oc3cc2cc(c3O[C@@H]2O[C@H](CO)[C@@H](O)[C@H](O)[C@H]2O[C@H]2C[C@](C)(N)[C@H](O)[C@H](C)O2)Oc2ccc(cc2Cl)[C@H]1O [vancomycin],resistant
10,O=C(O)c1cn(C2CC2)c2cc(N3CCNCC3)c(F)cc2c1=O [ciprofloxacin],sensitive
11,O=C(N[C@H](CO)[C@H](O)c1ccc([N+](=O)[O-])cc1)C(Cl)Cl [chloramphenicol],sensitive
12,CCN[C@@H]1C[C@H](N)[C@@H](O[C@H]2OC(CN)=CC[C@H]2N)[C@H](O)[C@H]1O[C@H]1OC[C@](C)(O)[C@H](NC)[C@H]1O [netilmicin],resistant
13,CO/N=C(\C(=O)N[C@@H]1C(=O)N2C(C(=O)O)=CCS[C@H]12)c1csc(N)n1 [ceftizoxime],Variable sensitivity
14,CCn1cc(C(=O)O)c(=O)c2ccc(C)nc21 [nalidixic acid],resistant
15,CO/N=C(\C(=O)N[C@@H]1C(=O)N2C(C(=O)O)=C(COC(C)=O)CS[C@H]12)c1csc(N)n1 [ceftaxime],sensitive
